Read-outs that look alike come from different tables or passages of the source.
What was measured:
Format in all cases: biochemical
[1] = target: T1, E. coli DNA gyrase (Escherichia coli, UniProt P0AES4+P0AES6); assay: DNA gyrase supercoiling assay (E. coli); details: for inhibition at 50 µM: conc. 50 μM; for inhibition at 50 µM / inhibition at 200 µM / % inhibition DNA gyrase: n/a = not active; for inhibition at 200 µM: conc. 200 μM; for % inhibition DNA gyrase: conc. 100 μM
T1 construct: purchased Inspiralis, UK
T1 sequence (P0AES4 whole entry, one chain of several): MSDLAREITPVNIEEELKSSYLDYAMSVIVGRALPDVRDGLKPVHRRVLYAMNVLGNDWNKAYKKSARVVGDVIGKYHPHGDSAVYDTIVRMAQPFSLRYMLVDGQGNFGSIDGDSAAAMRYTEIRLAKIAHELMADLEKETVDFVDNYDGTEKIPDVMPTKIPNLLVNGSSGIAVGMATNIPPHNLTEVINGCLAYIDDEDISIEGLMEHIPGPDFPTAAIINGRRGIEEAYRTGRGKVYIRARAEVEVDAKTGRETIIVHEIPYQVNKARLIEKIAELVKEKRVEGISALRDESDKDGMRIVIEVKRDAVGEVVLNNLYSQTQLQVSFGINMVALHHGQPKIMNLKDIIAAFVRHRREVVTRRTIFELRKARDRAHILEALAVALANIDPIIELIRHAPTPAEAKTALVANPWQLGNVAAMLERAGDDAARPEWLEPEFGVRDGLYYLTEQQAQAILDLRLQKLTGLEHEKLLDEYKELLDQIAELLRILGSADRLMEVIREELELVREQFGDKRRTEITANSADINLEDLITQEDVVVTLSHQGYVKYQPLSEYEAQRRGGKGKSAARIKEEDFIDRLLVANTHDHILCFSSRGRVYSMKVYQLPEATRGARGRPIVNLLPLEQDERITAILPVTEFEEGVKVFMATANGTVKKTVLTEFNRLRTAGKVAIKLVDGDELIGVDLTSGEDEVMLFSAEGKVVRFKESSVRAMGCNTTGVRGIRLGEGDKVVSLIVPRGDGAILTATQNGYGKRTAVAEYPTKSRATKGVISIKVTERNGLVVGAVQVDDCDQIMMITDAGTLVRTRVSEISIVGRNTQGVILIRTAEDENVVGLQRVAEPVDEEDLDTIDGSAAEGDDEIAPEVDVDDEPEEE
Method: (§1) The above compounds were tested for the inhibition of the enzyme DNA gyrase in a gyrase supercoiling assay and for the inhibition of the enzyme topoisomerase IV in a decatenation assay, in both Gram positive and Gram negative bacteria, according to the following methods.
(§2) Both the assays were carried out according to a set-up method modified from the article to Blanche F, et al. “Differential Behaviors of Staphylococcus aureus and Escherichia coli Type II DNA Topoisomerases”, Antimicrob. Agents Chemother., 1996, Vol. 40, No. 12 p. 2714-2720.
(§3) The compounds were screened at single concentration (200, 100 or 50 μM), in duplicate.
(§4) Reagents from S. aureus and E. coli Gyrase Supercoiling Assay kits (Inspiralis, UK) were used. A master mix with a total volume sufficient for the number of reactions to perform was prepared with the following reagents: 5× assay buffer, relaxed pBR322 substrate (0.5 μg/reaction), RNase-DNase free water. Aliquotes of this mix were dispensed in each tube, then 10× compound stock solutions or vehicle control (DMSO), were added to each reaction tube.
(§5) Reaction was started with E. Coli (2 U/reaction) or S. aureus (1 U/reaction) gyrase enzyme addition.
(§6) A sample added with an equal volume of dilution buffer was used as negative control (without enzyme).
(§7) The reaction tubes were gentle vortexed and incubated 30 minutes at 37° C. Each reaction was stopped by adding 30 μl of Stop Buffer and 30 μl chloroform/isoamyl alcohol (24/1), briefly vortexed for 5-10 seconds and centrifuged at 20000×g for 2 minutes. Samples were loaded onto 1% agarose gel and subjected to electrophoresis for 1 hour at 80V constant voltage in TAE (40 mM Tris-acetate, 2 mM EDTA).
(§8) Data acquisition and analysis. Treatment of relaxed pBR322 with DNA gyrase converted the relaxed topoisomers (DNAs of different linking number) to the supercoiled form of the plasmid, which migrates faster on an agarose gel. An upper band might also be visible, which consists of open-circular (nicked) DNA which is present in the relaxed substrate but co-migrates with some of the relaxed topoisomers.
(§9) Bands were visualized by ethidium bromide staining (dilution 1:20000) for 30 minutes followed by destaining in distilled water for 10 minutes.
(§10) In order to evaluate the compounds activity on the enzyme, the bands of supercoiled DNAs in the gel were photographed by a digital imaging system ImageQuant LAS 4000 (GE Healthcare) according to manufacturer's instructions.
(§11) The fluorescent intensity of each band was analyzed by ImageQuant TL software and it was expressed as volume (volume of the uncalibrated quantity of material in the image feature after subtraction of the background intensity by using rolling ball method).
(§12) Each band intensity was compared, as percentage, to vehicle sample band intensity, which served as positive control, on the same gel.
(§13) Inhibitory activity was expressed as percent of inhibition versus the positive control.
(§14) The supercoiled or decatenated DNA bands obtained as described in Example 1 were analysed as follows.
(§15) Bands were analyzed by gel documentation equipment (Syngene, Cambridge, UK) and quantitated using Syngene Gene Tools software. Raw gel data (fluorescent band volumes) collected from Syngene, GeneTools gel analysis software were converted to a percentage of the 100% control (the fully supercoiled or decatenated DNA band). […] The IC50 data were calculated by using the global curve fit non-linear regression tool by selecting the Single, 2 Parameter fit function from the Exponential Decay equation category.

[2] = target: T2, E. coli Topoisomerase IV (Escherichia coli, UniProt P0AFI2+P20083); assay: Topoisomerase IV decatenation assay (E. coli); details: for inhibition at 50 µM: conc. 50 μM; for inhibition at 50 µM / inhibition at 200 µM / % inhibition Topo IV: n/a = not active; for inhibition at 50 µM / inhibition at 200 µM: read-out: % inhibition Topo IV; for inhibition at 200 µM: conc. 200 μM; for % inhibition Topo IV: conc. 100 μM
T2 construct: purchased Inspiralis, UK
T2 sequence (P20083 whole entry): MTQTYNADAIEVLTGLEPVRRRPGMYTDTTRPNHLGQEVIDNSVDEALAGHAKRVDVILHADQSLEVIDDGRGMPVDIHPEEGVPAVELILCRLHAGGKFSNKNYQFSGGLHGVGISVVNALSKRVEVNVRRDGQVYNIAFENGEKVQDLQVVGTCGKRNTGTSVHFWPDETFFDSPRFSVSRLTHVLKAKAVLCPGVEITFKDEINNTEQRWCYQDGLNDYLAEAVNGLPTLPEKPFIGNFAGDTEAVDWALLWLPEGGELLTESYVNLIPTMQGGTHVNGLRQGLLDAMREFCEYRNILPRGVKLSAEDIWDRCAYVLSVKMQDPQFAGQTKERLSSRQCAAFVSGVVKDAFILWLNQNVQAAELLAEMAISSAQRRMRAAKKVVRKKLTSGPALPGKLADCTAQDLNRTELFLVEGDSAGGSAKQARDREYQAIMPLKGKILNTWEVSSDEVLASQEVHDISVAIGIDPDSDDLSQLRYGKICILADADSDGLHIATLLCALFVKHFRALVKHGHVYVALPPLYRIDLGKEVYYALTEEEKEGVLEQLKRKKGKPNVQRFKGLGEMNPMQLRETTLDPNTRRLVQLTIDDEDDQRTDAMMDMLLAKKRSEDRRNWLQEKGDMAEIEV
T2 sequence (P0AFI2 whole entry): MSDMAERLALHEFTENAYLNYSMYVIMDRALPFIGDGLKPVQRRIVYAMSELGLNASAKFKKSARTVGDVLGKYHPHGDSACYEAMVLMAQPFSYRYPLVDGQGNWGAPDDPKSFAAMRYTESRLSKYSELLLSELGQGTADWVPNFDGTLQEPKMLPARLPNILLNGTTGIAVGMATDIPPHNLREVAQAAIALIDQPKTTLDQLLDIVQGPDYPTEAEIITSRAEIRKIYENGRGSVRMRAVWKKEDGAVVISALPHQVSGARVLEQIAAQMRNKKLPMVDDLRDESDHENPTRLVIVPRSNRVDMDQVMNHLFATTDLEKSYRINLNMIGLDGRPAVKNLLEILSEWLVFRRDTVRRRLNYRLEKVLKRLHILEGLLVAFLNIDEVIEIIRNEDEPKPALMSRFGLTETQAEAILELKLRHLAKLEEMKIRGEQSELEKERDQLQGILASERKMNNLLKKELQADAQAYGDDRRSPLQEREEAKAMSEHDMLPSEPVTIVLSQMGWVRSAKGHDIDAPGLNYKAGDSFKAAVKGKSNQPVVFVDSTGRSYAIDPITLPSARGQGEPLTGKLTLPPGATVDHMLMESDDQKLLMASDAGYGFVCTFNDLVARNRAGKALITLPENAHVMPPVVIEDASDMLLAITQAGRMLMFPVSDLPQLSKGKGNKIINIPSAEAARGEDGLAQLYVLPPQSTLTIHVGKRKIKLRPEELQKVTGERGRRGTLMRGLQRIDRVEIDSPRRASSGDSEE
Method: as §1, §2, §3
S. aureus and E. coli Topoisomerase IV decatenation kits (Inspiralis, UK) were used. A master mix with a total volume sufficient for the number of reactions to perform was prepared with the following reagents: 5× assay buffer (50 mM HEPES-KOH (pH 7.6), 100 mM potassium glutamate, 10 mM magnesium acetate, 10 mM DTT, 1 mM ATP, 50 μg/ml albumin), kDNA substrate (200 ng/reaction), RNase-DNase free water. Aliquots of this mix were dispensed in each tube, then 10× compound stock solutions or vehicle control (DMSO), were added in each reaction tube.
Reaction was started with Topoisomerase IV enzyme (0.5 U/reaction) addition.
as §6
The reaction tubes were gentle vortexed and incubated 30 minutes at 37° C. Each reaction was stopped by adding 30 μl of Stop Buffer and 30 μl of chloroform/isoamyl alcohol (24/1), briefly vortexed for 5-10 seconds and centrifuged at 20000×g for 2 minutes. Samples taken from the upper phase were loaded into 1% agarose gel and subjected to electrophoresis for 1 hour at 80V constant voltage in TAE (40 mM Tris-acetate, 2 mM EDTA).
Data acquisition and analysis. Due to the high molecular mass, kDNA could not enter an agarose gel under normal electrophoresis conditions, but remained in the wells. In the presence of Topo IV topoisomerase mini-circles (2.5 Kb) were released from kDNA by decatenation and were quickly and easily resolved in the gel at relatively high voltages.
Bands were visualized by ethidium bromide staining (dil 1:20000) for 30 minutes followed by destaining in distilled water for 10 minutes.
For single concentration screening assay, in order to evaluate the compounds activity on the enzymes, the bands of decatenated DNAs in the gel were photographed by a digital imaging system ImageQuant LAS 4000 (GE Healthcare) according to manufacturer's instructions.
as §11, §12, §13, §14, §15

[3] = target: T3, S. aureus DNA gyrase (Staphylococcus aureus, UniProt P0A0K8+P20831); assay: DNA gyrase supercoiling assay (S. aureus); details: for inhibition at 50 µM: conc. 50 μM
T3 construct: purchased Inspiralis, UK
T3 sequence (P0A0K8 whole entry): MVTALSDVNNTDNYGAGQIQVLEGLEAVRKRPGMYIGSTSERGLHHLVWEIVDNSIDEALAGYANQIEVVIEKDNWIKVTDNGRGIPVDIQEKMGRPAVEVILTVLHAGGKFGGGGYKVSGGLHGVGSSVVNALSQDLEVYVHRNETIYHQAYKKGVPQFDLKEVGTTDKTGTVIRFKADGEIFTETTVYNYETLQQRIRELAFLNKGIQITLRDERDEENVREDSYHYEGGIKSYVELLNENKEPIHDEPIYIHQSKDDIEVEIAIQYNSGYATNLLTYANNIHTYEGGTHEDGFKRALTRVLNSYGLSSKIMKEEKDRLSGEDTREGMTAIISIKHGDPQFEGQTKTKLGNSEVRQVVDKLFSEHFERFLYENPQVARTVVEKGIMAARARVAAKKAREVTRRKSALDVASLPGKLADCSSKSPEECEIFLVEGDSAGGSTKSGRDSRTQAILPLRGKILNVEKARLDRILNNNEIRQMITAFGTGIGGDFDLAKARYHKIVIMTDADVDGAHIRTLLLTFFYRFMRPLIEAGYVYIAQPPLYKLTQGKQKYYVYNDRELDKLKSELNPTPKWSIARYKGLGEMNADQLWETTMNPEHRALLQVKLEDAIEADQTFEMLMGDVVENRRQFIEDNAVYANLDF
T3 sequence (P20831 whole entry): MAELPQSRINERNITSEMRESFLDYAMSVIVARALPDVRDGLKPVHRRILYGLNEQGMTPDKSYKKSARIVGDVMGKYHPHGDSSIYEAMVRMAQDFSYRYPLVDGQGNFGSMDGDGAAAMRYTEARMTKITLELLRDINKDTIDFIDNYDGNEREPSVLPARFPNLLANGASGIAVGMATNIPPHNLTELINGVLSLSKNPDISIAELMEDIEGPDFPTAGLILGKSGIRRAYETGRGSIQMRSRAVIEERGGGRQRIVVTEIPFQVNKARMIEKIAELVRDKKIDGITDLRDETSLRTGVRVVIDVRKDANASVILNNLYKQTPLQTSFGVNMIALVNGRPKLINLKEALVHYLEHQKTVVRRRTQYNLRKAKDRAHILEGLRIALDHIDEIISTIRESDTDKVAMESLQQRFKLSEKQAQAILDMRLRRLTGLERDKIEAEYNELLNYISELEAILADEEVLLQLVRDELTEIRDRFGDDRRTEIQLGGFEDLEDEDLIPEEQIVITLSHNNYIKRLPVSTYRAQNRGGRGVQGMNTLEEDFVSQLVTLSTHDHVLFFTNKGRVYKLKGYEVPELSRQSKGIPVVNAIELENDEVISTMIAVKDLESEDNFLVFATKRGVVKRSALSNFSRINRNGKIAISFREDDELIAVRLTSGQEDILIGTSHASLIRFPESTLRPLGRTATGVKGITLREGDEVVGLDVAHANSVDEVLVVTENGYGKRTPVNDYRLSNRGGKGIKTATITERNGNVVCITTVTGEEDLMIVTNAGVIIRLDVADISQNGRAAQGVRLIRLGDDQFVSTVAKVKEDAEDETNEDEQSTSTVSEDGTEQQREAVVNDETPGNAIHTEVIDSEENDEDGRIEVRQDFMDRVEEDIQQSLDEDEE
Method: as §1, §2, §3, §4, §5, §6, §7, §8, §9, §10, §11, §12, §13, §14, §15

Molecule: O=c1cc(NCCC[N+]2([O-])CCN(c3nccc4ccc(F)cc34)CC2)c2ccccc2o1 [Compound 105, 4-({3-[4-(7-fluoroisoquinolin-1-yl)-1-oxidopiperazin-1-yl]propyl}amino)-2H-chromen-2-one]
- IC50 [1]: 11.4 µM
- inhibition at 50 µM ([1]; E. coli): 91%
- IC50 [2]: 5.6 µM
- inhibition at 50 µM ([2]; E. coli): 66%
- IC50 [3]: 6.6 µM
- inhibition at 50 µM ([3]; S. aureus, n/a = not active): 100%

Molecule: O=c1oc2ccccc2c2[nH]c(CCN3CCN(c4nccc5ccc(F)cc45)CC3)nc12 [Compound 143, 2-{2-[4-(7-fluoroisoquinolin-1-yl)piperazin-1-yl]ethyl}chromeno[3,4-d]imidazol-4(1H)-one]
- inhibition at 50 µM ([1]; E. coli): 96%
- inhibition at 50 µM ([2]; E. coli): 91%
- inhibition at 50 µM ([3]; S. aureus, n/a = not active): 89%

Molecule: O=c1cc(NCCCN2CCN(c3nccc4ccc(F)cc34)CC2)c2c(o1)CCOC2 [Compound 125, 4-({3-[4-(7-fluoroisoquinolin-1-yl)piperazin-1-yl]propyl}amino)-7,8-dihydro-2H,5H-pyrano[4,3-b]pyran-2-one]
- IC50 [1]: 6.3 µM
- inhibition at 50 µM ([1]; E. coli): 86%
- IC50 [2]: 59 µM
- inhibition at 50 µM ([2]; E. coli): 68%
- IC50 [3]: 19 µM
- inhibition at 50 µM ([3]; S. aureus, n/a = not active): 89%

Molecule: c1ccc2c(N3CCN(CCCNCc4cc5c(cn4)OCS5)CC3)nccc2c1 [Compound 46, 3-[4-(isoquinolin-1-yl)piperazin-1-yl]-N-([1,3]oxathiolo-[5,4-c]pyridin-6-ylmethyl)propan-1-amine]
- inhibition at 200 µM ([1]; E. coli): 57%
- inhibition at 200 µM ([2]; E. coli): 94%
- inhibition at 200 µM ([3]; S. aureus, conc. 200 μM, n/a = not active): 100%

Molecule: O=c1oc2ccccc2c2[nH]c(CNC3CCN(c4nccc5ccc(F)cc45)CC3)cc12 [Compound 145, 2-({[1-(7-fluoroisoquinolin-1-yl)piperidin-4-yl]amino}methyl)[1]benzopyrano[4,3-b]pyrrol-4(1H)-one]
- inhibition at 50 µM ([1]; E. coli): 99%
- inhibition at 50 µM ([2]; E. coli): 100%
- inhibition at 50 µM ([3]; S. aureus, n/a = not active): 97%

Molecule: O=c1oc2ccccc2c2[nH]c(CCCN3CCN(c4nccc5ccc(F)cc45)CC3)nc12 [Compound 147, 2-{3-[4-(7-fluoroisoquinolin-1-yl)piperazin-1-yl]propyl}[1]benzopyrano[3,4-d]imidazol-4(1H)-one]
- inhibition at 50 µM ([1]; E. coli): 84%
- inhibition at 50 µM ([2]; E. coli): 74%
- inhibition at 50 µM ([3]; S. aureus, n/a = not active): 85%

Molecule: 1,3-dichloroisoquinoline [Compound 66]
- % inhibition DNA gyrase ([1]; E. coli): 100%
- IC50 ([1]; E. coli, concentration-response curve, eight half-log concentrations 0.1 to 300 μM, read-out: IC50 DNA gyrase): 2.3 µM
- % inhibition Topo IV ([2]; E. coli): 58%
- IC50 ([2]; E. coli, concentration-response curve, eight half-log concentrations 0.1 to 300 μM, read-out: IC50 Topo IV): 3.2 µM
- % inhibition DNA gyrase ([3]; S. aureus, conc. 100 μM, n/a = not active): 87%
- IC50 ([3]; S. aureus, concentration-response curve, eight half-log concentrations 0.1 to 300 μM, read-out: IC50 DNA gyrase): 12.1 µM

Molecule: 4-chloro-2H-chromen-2-one [Compound 63]
- % inhibition DNA gyrase ([1]; E. coli): 98%
- % inhibition Topo IV ([2]; E. coli): 51%

Molecule: O=C1Cc2cccc(CCCN3CCC(Nc4cc(=O)oc5ccccc45)CC3)c2N1 [Compound 40, 7-(3-{4-[(2-oxo-2H-chromen-4-yl)amino]piperidin-1-yl}propyl)-1,3-dihydro-2H-indol-2-one]
- inhibition at 200 µM ([1]; E. coli): 54%
- inhibition at 200 µM ([2]; E. coli): 78%

From patent publication US10221144B2, “Antibacterial compounds having broad spectrum of activity” (priority 2014, dated 2019)
